These are literature values, as cited in patent publication US20060104997A1, “Monoterpene compositions and uses thereof” (priority 2001, published 2006).

This data set concerns advanced N-methyl-N-nitrosourea-induced rat mammary carcinoma.

`C=C(C)C1CC=C(CO)CC1` (stereo not shown) [perillyl alcohol, 1-hydroxymethyl-4-isopropenyl-1-cyclohexene]: the “activity relative to limonene” value is “approximately 5 fold”.
